Measured values as given in patent US12435060B2, “Acylamino bridged heterocyclic compound, and composition and application thereof” (BEIJING SCITECH-MQ PHARMACEUTICALS LIMITED, priority 2019, dated 2025).

Tested on: HT29 cells
Experiment: Inhibition of cell necrosis (CCK8 method), induced programmed necrosis of HT29 cells
Type: cell-based
Conditions: Homo sapiens, HT-29; rescue from necrosis induced by TNF-α 20 ng/mL, AT-406 1 μM, Z-VAD-FMK 20 μM; 16-20 hours; CCK-8, OD 450 nm
Procedure, shortened: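 Rescue from programmed necrosis was scored by CCK-8 absorbance at 450 nm after 16-20 h of TNF-α (20 ng/mL), AT-406 (1 μM) and Z-VAD-FMK (20 μM) at 37 °C, 5% CO2. HT29 cells had received compound 30 min earlier across nine 4-fold dilutions (top 25000 nM final). IC50 came from % inhibition relative to uninduced and induced-only wells.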

Structure (SMILES)	IC50 [µM]
Cc1c(OCCO)cccc1-c1ccnc(NC(=O)c2nnc(Cc3ccccc3)[nH]2)c1 [Example 95, 5-benzyl-N-(4-(3-(2-hydroxyethoxy)-2-methylphenyl)pyridin-2-yl)-4H-1,2,4-triazole-3-carboxamide]	0.1 to 1
COCCOc1cccc(-c2ccnc(NC(=O)c3nnc(Cc4ccccc4)[nH]3)c2)c1C [Example 96, 5-benzyl-N-(4-(3-(2-methoxyethoxy)-2-methylphenyl)pyridin-2-yl)-4H-1,2,4-triazole-3-carboxamide]	0.1 to 1
Cc1c(OCCCO)cccc1-c1ccnc(NC(=O)c2nnc(Cc3ccccc3)[nH]2)c1 [Example 97, 5-benzyl-N-(4-(3-(3-hydroxylpropoxy)-2-methylphenyl)pyridin-2-yl)-4H-1,2,4-triazole-3-carboxamide]	0.1 to 1
COCCCOc1cccc(-c2ccnc(NC(=O)c3nnc(Cc4ccccc4)[nH]3)c2)c1C [Example 98, 5-benzyl-N-(4-(3-(3-methoxypropoxy)-2-methylphenyl)pyridin-2-yl)-4H-1,2,4-triazole-3-carboxamide]	0.1 to 1
Cc1c(OCCCCO)cccc1-c1ccnc(NC(=O)c2nnc(Cc3ccccc3)[nH]2)c1 [Example 99, 5-benzyl-N-(4-(3-(4-hydroxybutoxy)-2-methylphenyl)pyridin-2-yl)-4H-1,2,4-triazole-3-carboxamide]	0.1 to 1
CCCCCCCCOc1ccc(C)c(-c2ccnc(NC(=O)c3nnc(Cc4ccccc4)[nH]3)c2)c1 [Example 100, 5-benzyl-N-(4-(2-methyl-5-(octyloxy)phenyl)pyridin-2-yl)-4H-1,2,4-triazole-3-carboxamide]	0.1 to 1
COc1ccc(C)c(-c2ccnc(NC(=O)c3nnc(Cc4ccccc4)[nH]3)c2)c1 [Example 101, 5-benzyl-N-(4-(5-methoxy-2-methylphenyl)pyridin-2-yl)-4H-1,2,4-triazole-3-carboxamide]	0.1 to 1
COc1ccc(C)c(-c2ccnc(NC(=O)c3nnc(CC4CCCC4)[nH]3)c2)c1 [Example 102, 5-(cyclopentylmethyl)-N-(4-(5-methoxy-2-methylphenyl)pyridin-2-yl)-4H-1,2,4-triazole-3-carboxamide]	0.1 to 1
COc1ccc(C)c(-c2ccnc(NC(=O)c3nnc(CC4CCCCC4)[nH]3)c2)c1 [Example 103, 5-(cyclohexylmethyl)-N-(4-(5-methoxy-2-methylphenyl)pyridin-2-yl)-4H-1,2,4-triazole-3-carboxamide]	0.1 to 1
CCc1ccc(OC)c(-c2ccnc(NC(=O)c3nnc(Cc4ccccc4)[nH]3)c2)c1 [Example 104, 5-benzyl-N-(4-(5-ethyl-2-methoxyphenyl)pyridin-2-yl)-4H-1,2,4-triazole-3-carboxamide]	1 to 10
CCOc1ccc(Cl)c(-c2cncc(NC(=O)c3nnc(Cc4ccccc4)[nH]3)c2)c1 [Example 105, 5-benzyl-N-(5-(2-chloro-5-ethoxyphenyl)pyridin-3-yl)-4H-1,2,4-triazole-3-carboxamide]	> 10
CCOc1ccc(Cl)c(-c2ccnc(NC(=O)c3nnc(Cc4ccccc4)[nH]3)c2)c1 [Example 106, 5-benzyl-N-(4-(2-chloro-5-ethoxyphenyl)pyridin-2-yl)-4H-1,2,4-triazole-3-carboxamide]	1 to 10
CCOc1ccc(OC)c(-c2ccnc(NC(=O)c3nnc(Cc4ccccc4)[nH]3)c2)c1 [Example 107, 5-benzyl-N-(4-(5-ethoxy-2-methoxyphenyl)pyridin-2-yl)-4H-1,2,4-triazole-3-carboxamide]	1 to 10
CCOc1ccc(C)c(-c2ccnc(NC(=O)c3nnc(Cc4ccccc4)[nH]3)c2)c1 [Example 108, 5-benzyl-N-(4-(5-ethoxy-2-methylphenyl)pyridin-2-yl)-4H-1,2,4-triazole-3-carboxamide]	1 to 10
CCn1nc(C)cc1-c1ccnc(NC(=O)c2nnc(Cc3ccccc3)[nH]2)c1 [Example 109, 5-benzyl-N-(4-(1-ethyl-3-methyl-1H-pyrazol-5-yl)pyridin-2-yl)-4H-1,2,4-triazole-3-carboxamide]	1 to 10
CC(C)Oc1ccc(Cl)c(-c2cncc(NC(=O)c3nnc(Cc4ccccc4)[nH]3)c2)c1 [Example 110, 5-benzyl-N-(5-(2-chloro-5-isopropoxyphenyl)pyridin-3-yl)-4H-1,2,4-triazole-3-carboxamide]	> 10
CC(C)Oc1ccc(Cl)c(-c2ccnc(NC(=O)c3nnc(Cc4ccccc4)[nH]3)c2)c1 [Example 111, 5-benzyl-N-(4-(2-chloro-5-isopropoxyphenyl)pyridin-2-yl)-4H-1,2,4-triazole-3-carboxamide]	≤ 0.1
COc1ccc(OC(C)C)cc1-c1ccnc(NC(=O)c2nnc(Cc3ccccc3)[nH]2)c1 [Example 112, 5-benzyl-N-(4-(5-isopropoxy-2-methoxyphenyl)pyridin-2-yl)-4H-1,2,4-triazole-3-carboxamide]	1 to 10

Structure (SMILES)	IC50 [µM]
Cc1ccc(OC(C)C)cc1-c1cncc(NC(=O)c2nnc(Cc3ccccc3)[nH]2)c1 [Example 113, 5-benzyl-N-(5-(5-isopropoxy-2-methylphenyl)pyridin-3-yl)-4H-1,2,4-triazole-3-carboxamide]	> 10
Cc1ccc(OC(C)C)cc1-c1ccnc(NC(=O)c2nnc(Cc3ccccc3)[nH]2)c1 [Example 114, 5-benzyl-N-(4-(5-isopropoxy-2-methylphenyl)pyridin-2-yl)-4H-1,2,4-triazole-3-carboxamide]	0.1 to 1
Cc1ccc(OCCC(C)(C)C)cc1-c1ccnc(NC(=O)c2nnc(Cc3ccccc3)[nH]2)c1 [Example 115, 5-benzyl-N-(4-(5-(3,3-dimethylbutoxy)-2-methylphenyl)pyridin-2-yl)-4H-1,2,4-triazole-3-carboxamide]	0.1 to 1
Cc1ccc(OCC(N)=O)cc1-c1ccnc(NC(=O)c2nnc(Cc3ccccc3)[nH]2)c1 [Example 116, N-(4-(5-(2-amino-2-oxoethoxy)-2-methylphenyl)pyridin-2-yl)-5-benzyl-4H-1,2,4-triazole-3-carboxamide]	0.1 to 1
Cc1ccc(OCC(C)(C)O)cc1-c1ccnc(NC(=O)c2nnc(Cc3ccccc3)[nH]2)c1 [Example 117, 5-benzyl-N-(4-(5-(2-hydroxyl-2-methylpropoxy)-2-methylphenyl)pyridin-2-yl)-4H-1,2,4-triazole-3-carboxamide]	≤ 0.1
Cc1ccc(OCC(C)(C)O)cc1-c1ccnc(NC(=O)c2nnc(CC3CCCC3)[nH]2)c1 [Example 118, 5-(cyclopentylmethyl)-N-(4-(5-(2-hydroxyl-2-methylpropoxy)-2-methylphenyl)pyridin-2-yl)-4H-1,2,4-triazole-3-carboxamide]	≤ 0.1
Cc1ccc(OCC(C)(C)O)cc1-c1ccnc(NC(=O)c2nnc(CC3CCCCC3)[nH]2)c1 [Example 119, 5-(cyclohexylmethyl)-N-(4-(5-(2-hydroxyl-2-methylpropoxy)-2-methylphenyl)pyridin-2-yl)-4H-1,2,4-triazole-3-carboxamide]	≤ 0.1
Cc1ccc(OCC#N)cc1-c1ccnc(NC(=O)c2nnc(Cc3ccccc3)[nH]2)c1 [Example 120, 5-benzyl-N-(4-(5-(cyanomethoxy)-2-methylphenyl)pyridin-2-yl)-4H-1,2,4-triazole-3-carboxamide]	0.1 to 1
Cc1ccc(OCC2CCCO2)cc1-c1ccnc(NC(=O)c2nnc(Cc3ccccc3)[nH]2)c1 (stereo not drawn) [Example 121, 5-benzyl-N-(4-(2-methyl-5-((tetrahydrofuran-2-yl)methoxy)phenyl)pyridin-2-yl)-4H-1,2,4-triazole-3-carboxamide]	≤ 0.1
Cc1ccc(OCC2CCOC2)cc1-c1ccnc(NC(=O)c2nnc(Cc3ccccc3)[nH]2)c1 (stereo not drawn) [Example 122, 5-benzyl-N-(4-(2-methyl-5-((tetrahydrofuran-3-yl)methoxy)phenyl)pyridin-2-yl)-4H-1,2,4-triazole-3-carboxamide]	≤ 0.1
Cc1ccc(OCC2CCCCO2)cc1-c1ccnc(NC(=O)c2nnc(Cc3ccccc3)[nH]2)c1 (stereo not drawn) [Example 123, 5-benzyl-N-(4-(2-methyl-5-((tetrahydro-2H-pyran-2-yl)methoxy)phenyl)pyridin-2-yl)-4H-1,2,4-triazole-3-carboxamide]	≤ 0.1
O=C(Nc1cc(-c2ccccc2OCCO)ccn1)c1nnc(Cc2ccccc2)[nH]1 [Example 124, 5-benzyl-N-(4-(2-(2-hydroxyethoxy)phenyl)pyridin-2-yl)-4H-1,2,4-triazole-3-carboxamide]	1 to 10
Cc1ccc(OCCO)cc1-c1ccnc(NC(=O)c2nnc(Cc3ccccc3)[nH]2)c1 [Example 125, 5-benzyl-N-(4-(5-(2-hydroxyethoxy)-2-methylphenyl)pyridin-2-yl)-4H-1,2,4-triazole-3-carboxamide]	0.1 to 1
COCCOc1ccccc1-c1ccnc(NC(=O)c2nnc(Cc3ccccc3)[nH]2)c1 [Example 126, 5-benzyl-N-(4-(2-(2-methoxyethoxy)phenyl)pyridin-2-yl)-4H-1,2,4-triazole-3-carboxamide]	1 to 10
COCCOc1ccc(C)c(-c2ccnc(NC(=O)c3nnc(Cc4ccccc4)[nH]3)c2)c1 [Example 128, 5-benzyl-N-(4-(5-(2-methoxyethoxy)-2-methylphenyl)pyridin-2-yl)-4H-1,2,4-triazole-3-carboxamide]	≤ 0.1
COCCOc1cnc(C)c(-c2ccnc(NC(=O)c3nnc(Cc4ccccc4)[nH]3)c2)c1 [Example 129, 5-benzyl-N-(5-(2-methoxyethoxy)-2-methyl-[3,4′-bipyridin]-2′-yl)-4H-1,2,4-triazole-3-carboxamide]	0.1 to 1
COCCOc1ccc(C)c(-c2ccnc(NC(=O)c3nnc(Cc4ccccc4)s3)c2)c1 [Example 130, 5-benzyl-N-(4-(5-(2-methoxyethoxy)-2-methylphenyl)pyridin-2-yl)-1,3,4-thiodiazol-2-carboxamide]	> 10
CCOCCOc1ccc(C)c(-c2ccnc(NC(=O)c3nnc(Cc4ccccc4)[nH]3)c2)c1 [Example 131, 5-benzyl-N-(4-(5-(2-ethoxyethoxy)-2-methylphenyl)pyridin-2-yl)-4H-1,2,4-triazole-3-carboxamide]	≤ 0.1
